Source: patent US9458104B2 (priority 2012, dated 2016)

What was measured:
[1] = target: T1, RORγ ligand binding domain (LBD) (Homo sapiens, UniProt P51449); assay: TR-FRET Activity Assay (ligand sensing assay, RORγ-LBD / coactivator peptide interaction); format: biochemical
T1 construct: made in house; host or cells: E. coli BL-21 (BL3), vector pDEST15
T1 sequence (P51449 269-508 limits assumed): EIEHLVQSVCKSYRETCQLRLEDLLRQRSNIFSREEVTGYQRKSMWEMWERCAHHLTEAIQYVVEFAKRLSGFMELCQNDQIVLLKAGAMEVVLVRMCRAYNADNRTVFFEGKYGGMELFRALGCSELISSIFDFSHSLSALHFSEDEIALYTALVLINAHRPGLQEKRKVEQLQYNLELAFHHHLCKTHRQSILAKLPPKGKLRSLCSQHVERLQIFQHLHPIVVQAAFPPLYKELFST
Procedure, shortened: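 GST-RORγ LBD expressed in bacteria, 20–60 ng/well, with biotinylated coactivator peptide 200–600 nM, streptavidin-APC and Eu-anti-GST. Buffer: 20 mM Tris-HCl pH 6.8, 60 mM KCl, 1 mM DTT, 5 mM MgCl2, BSA; 1% DMSO. LANCE TR-FRET 665/615 nm ratio; IC50 from four-parameter logistic fit.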

RORγ = target: T2, RORγ (UniProt P51449); format: cell-based; conditions: 293T cells, 16 h; for pIC50 (FF): firefly (FF) luciferase; for pIC50 (REN): renilla normalised (RENnorm) luciferase
T2 construct: hRORg-LBD|aa259-518|NP_005051.2; hRORgt|aa1-497|NP_001001523 (RORg, t isoform, 497aa); mRORg-LBD|aa264-516|NP_035411
T2 sequence (P51449 1-518): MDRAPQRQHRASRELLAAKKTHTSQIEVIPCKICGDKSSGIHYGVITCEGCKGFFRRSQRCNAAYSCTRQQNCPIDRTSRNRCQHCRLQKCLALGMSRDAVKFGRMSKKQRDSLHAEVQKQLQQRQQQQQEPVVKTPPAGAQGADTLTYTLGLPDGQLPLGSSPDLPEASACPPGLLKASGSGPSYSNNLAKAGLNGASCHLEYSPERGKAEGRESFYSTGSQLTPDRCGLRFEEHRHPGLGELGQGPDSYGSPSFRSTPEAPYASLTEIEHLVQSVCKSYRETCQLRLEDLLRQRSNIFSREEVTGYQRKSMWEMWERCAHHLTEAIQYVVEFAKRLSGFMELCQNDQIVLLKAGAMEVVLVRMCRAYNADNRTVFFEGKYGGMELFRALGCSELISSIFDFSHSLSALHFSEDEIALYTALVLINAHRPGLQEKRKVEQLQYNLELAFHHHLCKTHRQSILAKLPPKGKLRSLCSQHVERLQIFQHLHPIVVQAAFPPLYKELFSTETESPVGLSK

| Compound | IC50 [1] [nM] | pIC50 (FF) (RORγ) | pIC50 (REN) (RORγ) |
| --- | --- | --- | --- |
| Cc1c(C(=O)NC2CCOCC2)cc(-c2ccc(S(=O)(=O)NC(C)(C)C)c(C(C)(C)C)c2)n1CC(C)(C)C [Example 302/1] | 1580 | 6.3 | 6.4 |
| CC(C)NC(=O)c1cc(CC2CCCCC2)n(-c2cc(C(C)(C)C)cc(C(C)(C)C)c2)n1 [102/2] | 631 | < 4.7 | < 4.7 |
| Cc1cc(-n2nc(C(=O)NC3CC3)cc2CC2CCCCC2)cc(C(C)(C)C)c1 [102/3] | 3160 | 5.7 | 6.1 |
| Cc1c(C(=O)N[C@H]2C[C@H](C(=O)O)C2)cn(-c2cc(C(C)(C)C)cc(C3(C)CC3)c2)c1SC1CCCCC1 [Example 21, trans-3-(1-(3-(tert-Butyl)-5-(1-methylcyclopropyl)phenyl)-5-(cyclohexylthio)-4-methyl-1H-pyrrole-3-carboxamido)cyclobutanecarboxylic acid] | 794 | 8.0 | 8.2 |
| CCNC(=O)c1cc(CC2CCCCC2)n(-c2cc(C(C)(C)C)cc(C(C)(C)C)c2)n1 [Example 102/1] | 631 | 5.9 | 6.0 |
| Cc1c(S(=O)(=O)CC2CC2)cc(-c2cc(C(C)(C)C)cc(C(C)(C)C)c2)n1CC1CCCCC1 [Example 325, 1-(Cyclohexylmethyl)-3-((cyclopropylmethyl)sulfonyl)-5-(3,5-di-tert-butylphenyl)-2-methyl-1H-pyrrole] | 398 | 6.1 | 6.1 |
| CC(C)(C)c1cc(-c2nc(S(N)(=O)=O)nn2CC2CCCCC2)cc(C(C)(C)C)c1 [Example 309, 1-(Cyclohexylmethyl)-5-(3,5-di-tert-butylphenyl)-1H-1,2,4-triazole-3-sulfonamide] | 3160 | < 4.7 | < 4.7 |
| CC(C)(C)NS(=O)(=O)c1ccc(-c2cc(C(=O)N[C@H]3C[C@H](C(=O)O)C3)nn2CC2CCCCC2)c(Cl)c1Cl [Example 112, trans-3-(5-(4-(N-(tert-Butyl)sulfamoyl)-2,3-dichlorophenyl)-1-(cyclohexylmethyl)-1H-pyrazole-3-carboxamido)cyclobutanecarboxylic acid] | 316 | 6.9 | 6.9 |
| CC(C)(C)c1cc(-c2nc(C(N)=O)nn2CC2CCCCC2)cc(C(C)(C)C)c1O [Example 306, 1-(Cyclohexylmethyl)-5-(3,5-di-tert-butyl-4-hydroxyphenyl)-1H-1,2,4-triazole-3-carboxamide] | 794 | 5.9 | 6.0 |
| Cn1c(C(=O)NC2CCS(=O)(=O)CC2)cc(-c2ccc(S(=O)(=O)NC(C)(C)C)c3ccccc23)c1CC1CCCCC1 [8/6] | 501 | 7.8 | 7.9 |
| Cn1c(C(=O)N[C@H]2C[C@H](C(=O)O)C2)cc(-c2cc(C(C)(C)C)nc(C3(C)CC3)n2)c1CC1CCCCC1 [8/18] | 794 | 6.7 | 6.7 |
| CC(C)(C)NS(=O)(=O)c1ccc(-c2cc(C(=O)NCCC(C)(C)C(=O)O)nn2CC2CCCCC2)cc1C(C)(C)C [100/4] | 2000 | 6.6 | 6.7 |
| CC(C)(C)NS(=O)(=O)c1ccc(-n2nc(C(=O)N[C@H]3C[C@H](C(=O)O)C3)nc2CC2CCCCC2)cc1C(C)(C)C [Example 318, trans-3-(1-(3-(tert-Butyl)-4-(N-(tert-butyl)sulfamoyl)phenyl)-5-(cyclohexylmethyl)-1H-1,2,4-triazole-3-carboxamido)cyclobutanecarboxylic acid] | 2000 | < 4.7 | < 4.7 |
| CC(C)(C)NS(=O)(=O)c1ccc(-c2c(F)c(C(=O)NCCC(C)(C)C(=O)O)nn2CC2CCCCC2)cc1C(F)(F)F [Example 109, 4-(5-(4-(N-(tert-Butyl)sulfamoyl)-3-(trifluoromethyl)phenyl)-1-(cyclohexylmethyl)-4-fluoro-1H-pyrazole-3-carboxamido)-2,2-dimethylbutanoic acid] | 501 | 6.7 | 6.8 |
| Cn1c(C(=O)NC2CCOCC2)cc(-c2ccc(S(=O)(=O)NC(C)(C)C)c(C(C)(C)C)c2)c1CC1CCCCC1 [8/2] | 398 | 7.1 | 7.3 |
| Cn1c(C(=O)N2CCC(C)(C(=O)O)CC2)cc(-c2cc(C(C)(C)C)cc(C3(C)CC3)c2)c1CC1CCCCC1 [8/16] | 1580 | 7.5 | 7.6 |
| Cn1c(C(=O)NC2CCOCC2)cc(CC2CCCCC2)c1-c1cc(C(C)(C)C)cc(C2(C)CC2)c1 [19/2] | 501 | 6.9 | 6.9 |
| Cn1c(CC2CCCCC2)c(-c2cc(C(C)(C)C)cc(C3(C)CC3)c2)c(Cl)c1C(=O)N[C@H]1C[C@H](C(=O)O)C1 [Example 20, trans-3-(4-(3-(tert-Butyl)-5-(1-methylcyclopropyl)phenyl)-3-chloro-5-(cyclohexylmethyl)-1-methyl-1H-pyrrole-2-carboxamido)cyclobutanecarboxylic acid] | 3980 | 7.2 | 7.3 |
| Cc1c(C(=O)NCC(C)(C)O)cn(-c2cc(C(C)(C)C)cc(C3(C)CC3)c2)c1CC1CCCCC1 [Example 1/1] | 200 | 7.4 | 7.5 |
| Cn1c(C(=O)NCC(C)(C)O)cc(-c2ccc(S(=O)(=O)NC(C)(C)C)c3ccccc23)c1CC1CCCCC1 [8/7] | 501 | 7.8 | 7.9 |
| CC(C)(C)NS(=O)(=O)c1ccc(-c2cc(C(=O)NCCC(C)(C)C(=O)O)nn2CC2CCCCC2)cc1C(F)(F)F [100/7] | 1260 | 6.2 | 6.3 |
| Cc1c(C(=O)NCCC(C)(C)C(=O)O)cn(-c2cc(C(C)(C)C)cc(C3(C)CC3)c2)c1CC1CCCCC1 [1/4] | 398 | 7.2 | 7.2 |
| Cc1c(C(=O)N[C@H]2C[C@H](C(=O)O)C2)c(C)n(-c2cc(C(C)(C)O)cc(C3(C)CC3)c2)c1CC1CCCCC1 [Example 16, trans-3-(5-(Cyclohexylmethyl)-1-(3-(2-hydroxypropan-2-yl)-5-(1-methylcyclopropyl)phenyl)-2,4-dimethyl-1H-pyrrole-3-carboxamido)cyclobutanecarboxylic acid] | 1580 | 6.6 | 6.7 |
